From publication PMC10285260, “Processive kinetics in the three-step lanosterol 14α-demethylation reaction catalyzed by human cytochrome P450 51A1” (The Journal of Biological Chemistry, 2023)
Where two headings read alike, the source gives them in different places.

Assays:
human P450 51A1 [1] = biological target: T1, human P450 51A1 (Homo sapiens, UniProt Q16850); assay: Spectral (difference spectroscopy) Kd estimates of P450 51A1-sterol complexes; format: binding; design: made in house; host or cells: Escherichia coli
T1 sequence (Q16850 1-509): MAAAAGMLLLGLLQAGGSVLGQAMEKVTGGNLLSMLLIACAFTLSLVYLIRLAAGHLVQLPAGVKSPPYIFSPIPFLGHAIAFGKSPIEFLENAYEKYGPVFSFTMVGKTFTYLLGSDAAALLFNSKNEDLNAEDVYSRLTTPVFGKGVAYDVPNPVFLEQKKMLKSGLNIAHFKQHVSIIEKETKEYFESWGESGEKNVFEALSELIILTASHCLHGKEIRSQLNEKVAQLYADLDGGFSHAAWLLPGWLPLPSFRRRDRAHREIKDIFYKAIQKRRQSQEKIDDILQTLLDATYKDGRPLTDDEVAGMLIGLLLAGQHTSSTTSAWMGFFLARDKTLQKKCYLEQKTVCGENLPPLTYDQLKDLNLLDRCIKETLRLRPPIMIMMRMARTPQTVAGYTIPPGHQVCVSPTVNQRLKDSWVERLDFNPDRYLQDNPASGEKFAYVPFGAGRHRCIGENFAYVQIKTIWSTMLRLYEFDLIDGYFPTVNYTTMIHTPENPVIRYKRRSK
Description: Kd values were estimated by difference spectroscopy. P450 51A1 (1.0 μM) was in each of two glass cuvettes (in 100 mM potassium phosphate buffer, pH 7.4) and a baseline was recorded (OLIS-Amino DW2a). Aliquots of a solution of each sterol–HPCD complex were added to the sample cuvette and an equivalent amount of HPCD was added to the reference cuvette, and spectra were recorded. The time between the collection of individual spectra was ∼3 min. The maximum absorbance difference (usually ΔA390-A418) was plotted versus the nominal concentration of added sterol, and the data were fit to hyperbolae in GraphPad Prism software (GraphPad, https://www.graphpad.com), using a quadratic equation to correct the ligand concentration for the enzyme-bound concentration (used as Y=B+(A/2)∗(1/E)∗((Kd+E+X)-sqrt((Kd + E+X)^∧2-(4∗E∗X)) in Prism software). The linear regression fits include the internal error estimates (SE).

human P450 51A1 [2] = biological target: T1, human P450 51A1; assay: Stopped-flow koff measurements of P450 51A1-sterol complexes with ketoconazole trap; format: binding; design: made in house; host or cells: Escherichia coli; conditions: 23 °C, 10 μM ketoconazole trap, 1 μM P450 51A1
Description: All assays were done at 23 °C in an OLIS-RSM 1000 stopped-flow spectrophotometer, collecting data every 1 ms over a range of 332 to 565 nm with slit widths of 1.24 mm (8 nm bandpass) and gratings with 400 lines/mm and 500 nm blaze. One syringe contained 20 μM ketoconazole dissolved in 100 mM potassium phosphate buffer (pH 7.4). In a preliminary experiment in which this was mixed with an equal volume of 2 μM P450 51A1 (same buffer), the observed rate of binding (ΔA430) was 25 s^−1.
P450 51A1 (2 μM) was premixed with an equivalent concentration of each of the sterols (in HPCD). Each of these solutions was placed in a drive syringe and rapidly mixed with 20 μM ketoconazole (yielding final concentrations of 1 μM P450 51A1 and 10 μM ketoconazole). The rate of the ΔA430-A390 change was used as the koff rate, that is, the rate at which the sterol left the P450 and allowed it to bind to the trap ligand ketoconazole.

human P450 51A1 [3] = assay: Kinetic modeling (KinTek Explorer) of the single-turnover time course
Source text: The initial koff rate constants used in fitting were the koff rates measured in the stopped-flow trap experiments (Fig. 9). All three oxidation reactions are irreversible, and thus k-2, k-4, and k-6 were set to zero.
Data were imported into KinTek Explorer software (v. 11.01, KinTek, https://kintekcorp.com/software) ([63], [64]) as txt files and processed using an Apple computer (operating system 11.6.2).

human P450 51A1 [4] = biological target: T1, human P450 51A1; assay: Single-turnover rapid-quench kinetics of [3-3H]-dihydrolanosterol oxidation (radio-HPLC); format: biochemical; design: made in house; host or cells: Escherichia coli
Description: All products were separated and quantified by radio-HPLC (Fig. S24).
Samples (held at 4 °C) were injected (45 μl) onto a Nova-Pak 3.9 mm × 150 mm (4 μm) octadecylsilane (C18) HPLC column (held at 23 °C). The products were separated at a flow rate of 1.0 ml min^−1 using an isocratic mobile phase composed of CH3CN (only) as was done for the LC-UV assays (above). The eluate from the column was mixed (1:2, v-v) with FlowLogic U scintillation cocktail, and radioactivity (^3H) was detected on a β-RAM Model 5 system (IN/US, LabLogic) (Fig. S24). Product formation was assessed as the relative contribution of each peak (in CPM) to the summed peak area of substrate and product(s).
The single-turnover experiments were performed using a KinTek rapid quench-flow apparatus (KinTek). This machine functions by forcing equal volumes (∼19 μl) of two separate solutions into a central mixing chamber, where the components are allowed to incubate for a predetermined period of time before an excess volume of quench solution (∼160 μl) stops the reaction and expels the mixture from the apparatus. […] After the predetermined incubation period, the reaction (37 °C) was quenched with HCl (1 M), and the mixture (∼200 μl) was collected into vials. The products of five identical reactions (time points) were combined and were extracted into CH2Cl2 (5 ml). An aliquot (4 ml) of the lower (organic) layer was removed into a fresh vial, and the extraction was repeated to maximize sample recovery. The pooled organic fraction (∼8 ml) was brought to dryness under a stream of N2 gas, and the residue was redissolved in 60 μl of CH3OH and transferred to LC vials for analysis.

human P450 51A1 [5] = biological target: T1, human P450 51A1; assay: Steady-state LC-UV assay of sterol oxidation to dihydro FF-MAS by reconstituted P450 51A1; conditions: oxidation to dihydro FF-MAS (epi-dihydro FF-MAS from epi substrate), 37 °C
Description: Steady-state incubations (500 μl) were generally done at 37 °C with 0.025 μM P450 51A1, 0.10 μM NADPH-P450 reductase, 100 μM L-α-dilauroyl-sn-glycero-3-phosphocholine, 50 mM potassium phosphate buffer (pH 7.4), 10% (v/v) glycerol, and an indicated concentration of each sterol (in 45% (w/v) HPCD). […] The sterols (stored at 4 °C) were prepared as described above and were heated to 37 °C and sonicated prior to use. Sterol working stocks were diluted in HPCD to ensure a constant concentration of cyclodextrin in each reaction. […] Accordingly, all reactions were done with this concentration of glycerol.
Reactions were preincubated (5 min, 37 °C) prior to initiation with an NADPH-regenerating system (0.5 mM NADP^+, 10 mM glucose 6-phosphate, and 2 μg ml^−1 glucose 6-phosphate dehydrogenase) ([60]) and were stopped after 5 min with the addition of CH2Cl2 (5 ml). (The NADPH-generating system, in addition to lower cost than NADPH, drives the reaction to avoid inhibition of the reductase by accumulated NADP^+). For the 14α-aldehyde, the times of preincubation and reaction were reduced (to 2 min and 1 min, respectively). The quenched mixture was centrifuged (2000g, 5 min), and 4 ml of the bottom (organic) layer was transferred to vials and brought to dryness under a stream of N2 gas. The dried residue was resuspended in CH3OH (100 μl) and was analyzed by UPLC using a 2.1 mm × 100 mm (1.7 μm) octadecylsilane (C18) column (held at 25 °C) and a Waters Acquity UPLC system. Samples (4 °C) were injected (10 μl) at a flow rate of 0.20 ml min^−1 using an isocratic mobile phase of CH3CN (only). The product (FF-MAS) was detected using a Waters Acquity photodiode array detector set at 250 nm (Fig. 4B). Data were processed using the MassLynx software (http://www.waters.com/waters/en_US/MassLynx-Mass-Spectrometry-Software-/nav.htm?cid=513164&locale=en_US), and the amount of product formed was calculated by comparison to a twelve-point dihydro FF-MAS standard curve. Determination of kcat and Km for each reaction was carried out by fitting the data to a Michaelis–Menten hyperbola, which was done using GraphPad Prism.
Incubations were run in triplicate, and the mean values (±SD) were calculated and plotted. The linear regression fits include the Prism error estimates for internal fitting (SE).

human P450 51A1 [6] = biological target: T1, human P450 51A1; assay: Stopped-flow rate of ketoconazole binding to P450 51A1; design: made in house; host or cells: Escherichia coli; conditions: 10 μM ketoconazole, 1 μM P450 51A1 final
[7] = substrate: CC(C)CCCC(C)[C@H]1CC[C@@]2(C)C3=C(CC[C@]12C)[C@@]1(C)CC[C@H](O)C(C)(C)C1CC3; assay: purified protein, by the assay type; conditions: pH 7.4
[8] = substrate: CC(C)CCCC(C)[C@H]1CC[C@@]2(CO)C3=C(CC[C@]12C)[C@@]1(C)CC[C@H](O)C(C)(C)C1CC3; assay: purified protein, by the assay type; conditions: other: oxidation to dihydro FF-MAS (epi-dihydro FF-MAS from epi substrate), 37 °C, pH 7.4
Description: (§1) Steady-state incubations (500 μl) were generally done at 37 °C with 0.025 μM P450 51A1, 0.10 μM NADPH-P450 reductase, 100 μM L-α-dilauroyl-sn-glycero-3-phosphocholine, 50 mM potassium phosphate buffer (pH 7.4), 10% (v/v) glycerol, and an indicated concentration of each sterol (in 45% (w/v) HPCD). Due to the high turnover rate of the 14α-aldehyde, the P450 and NADPH-P450 reductase concentrations were reduced (to 0.01 μM and 0.04 μM, respectively), and the reaction volume was increased (to 1 ml) to maximize sensitivity. The sterols (stored at 4 °C) were prepared as described above and were heated to 37 °C and sonicated prior to use. Sterol working stocks were diluted in HPCD to ensure a constant concentration of cyclodextrin in each reaction. […] Accordingly, all reactions were done with this concentration of glycerol.
(§2) Reactions were preincubated (5 min, 37 °C) prior to initiation with an NADPH-regenerating system (0.5 mM NADP^+, 10 mM glucose 6-phosphate, and 2 μg ml^−1 glucose 6-phosphate dehydrogenase) ([60]) and were stopped after 5 min with the addition of CH2Cl2 (5 ml). […] For the 14α-aldehyde, the times of preincubation and reaction were reduced (to 2 min and 1 min, respectively). The quenched mixture was centrifuged (2000g, 5 min), and 4 ml of the bottom (organic) layer was transferred to vials and brought to dryness under a stream of N2 gas. The dried residue was resuspended in CH3OH (100 μl) and was analyzed by UPLC using a 2.1 mm × 100 mm (1.7 μm) octadecylsilane (C18) column (held at 25 °C) and a Waters Acquity UPLC system. Samples (4 °C) were injected (10 μl) at a flow rate of 0.20 ml min^−1 using an isocratic mobile phase of CH3CN (only). The product (FF-MAS) was detected using a Waters Acquity photodiode array detector set at 250 nm (Fig. 4B). Data were processed using the MassLynx software (http://www.waters.com/waters/en_US/MassLynx-Mass-Spectrometry-Software-/nav.htm?cid=513164&locale=en_US), and the amount of product formed was calculated by comparison to a twelve-point dihydro FF-MAS standard curve. Determination of kcat and Km for each reaction was carried out by fitting the data to a Michaelis–Menten hyperbola, which was done using GraphPad Prism.

[9] = substrate: CC(C)CCCC(C)[C@H]1CC[C@@]2(C=O)C3=C(CC[C@]12C)[C@@]1(C)CC[C@H](O)C(C)(C)C1CC3; assay: purified protein, by the assay type; conditions: other: oxidation to dihydro FF-MAS (epi-dihydro FF-MAS from epi substrate), 37 °C, pH 7.4
Description: as §1, §2

[10] = substrate: CC(C)CCCC(C)[C@H]1CC[C@@]2(C)C3=C(CC[C@]12C)[C@@]1(C)CC[C@@H](O)C(C)(C)C1CC3; assay: purified protein, by the assay type; conditions: other: oxidation to dihydro FF-MAS (epi-dihydro FF-MAS from epi substrate), 37 °C, pH 7.4
Description: as §1, §2

Molecule: CC(C)CCC[C@@H](C)[C@H]1CC=C2C3=C(CC[C@@]21C)[C@@]1(C)CC[C@H](O)C(C)(C)[C@@H]1CC3 [dihydro FF-MAS, 24,25-dihydro FF-MAS]
- Kd (human P450 51A1 [1]; 1.0 μM P450 51A1, quadratic fit, read-out: Kd): 1400 nM
- koff (human P450 51A1 [2]): 2 s⁻¹
- k^+ of sterol binding to P450 51A1 (kon) used for fitting (human P450 51A1 [3]; all kon set at this value): 2e+06 M⁻¹ s⁻¹
- k^- of sterol binding to P450 51A1 (koff) used for fitting (human P450 51A1 [3]; optimized model): 2.0 s⁻¹
- concentration in single-turnover reaction (human P450 51A1 [4]; time 0.05 s, start 7 µM dihydrolanosterol): 0 µM
- concentration in single-turnover reaction (human P450 51A1 [4]; time 0.1 s): 0 µM
- concentration in single-turnover reaction (human P450 51A1 [4]; time 0.15 s): 0.2821 µM
- concentration in single-turnover reaction (human P450 51A1 [4]; time 0.2 s): 0.4249 µM
- concentration in single-turnover reaction (human P450 51A1 [4]; time 0.3 s): 0.7518 µM
- concentration in single-turnover reaction (human P450 51A1 [4]; time 0.4 s): 1.2019 µM
- concentration in single-turnover reaction (human P450 51A1 [4]; time 0.6 s): 2.506 µM
- concentration in single-turnover reaction (human P450 51A1 [4]; time 0.8 s): 3.0184 µM
- concentration in single-turnover reaction (human P450 51A1 [4]; time 1 s): 4.0537 µM
- concentration in single-turnover reaction (human P450 51A1 [4]; time 1.2 s): 4.494 µM
- concentration in single-turnover reaction (human P450 51A1 [4]; time 1.6 s): 4.8181 µM
- concentration in single-turnover reaction (human P450 51A1 [4]; time 2 s): 5.2031 µM
- concentration in single-turnover reaction (human P450 51A1 [4]; time 3 s): 5.8863 µM
- concentration in single-turnover reaction (human P450 51A1 [4]; time 4 s): 6.6353 µM
- concentration in single-turnover reaction (human P450 51A1 [4]; time 7 s): 7 µM

Molecule: CC(C)CCCC(C)[C@H]1CC[C@@]2(C)C3=C(CC[C@]12C)[C@@]1(C)CC[C@@H](O)C(C)(C)C1CC3 (stereo partly drawn) [epi-dihydrolanosterol, epi-Dihydrolanosterol]
- Kd (human P450 51A1 [1]): 14 nM
- kcat (human P450 51A1 [5]): 0.42 ± 0.03 s⁻¹

Molecule: CC(=O)N1CCN(c2ccc(OCC3COC(Cn4ccnc4)(c4ccc(Cl)cc4Cl)O3)cc2)CC1 (centres unmarked) [ketoconazole]
- pseudo-first-order observed rate of binding (human P450 51A1 [6]): 25 s⁻¹

B1: human P450 51A1 (Homo sapiens) (protein)
chain: T1 sequence (Q16850 1-509)
- kcat/Km ([7]; other: conversion to dihydro FF-MAS, isotope effect comparison): 1.3 (±0.2) × 10^5 M^−1 s^−1
- Km ([7]; other: oxidation to dihydro FF-MAS (epi-dihydro FF-MAS from epi substrate), 37 °C): 5.0 ± 0.6 µM
- Km [8]: 4.3 ± 0.4 µM
- kcat [8]: 0.67 ± 0.03 s⁻¹
- Km [9]: 5.4 ± 0.7 µM
- kcat [9]: 1.7 ± 0.1 s⁻¹
- Km [10]: 2.0 ± 0.4 µM
